Reference: ChEMBL document CHEMBL1821607, “N-Arylalkyl-2-azaadamantanes as cage-expanded polycarbocyclic sigma (σ) receptor ligands” (Bioorg Med Chem Lett, 2011)

How the values were obtained:
[1] = target: Sigma non-opioid intracellular receptor 1 (Cavia porcellus, UniProt Q60492); test: Displacement of [3H](+)-pentazocine from sigma 1 receptor in guinea pig brain homogenates after 90 mins by scintillation counting; format: tissue-based
[2] = Selectivity ratio of Ki for sigma 2 receptor in rat liver to Ki for sigma 1 receptor in guinea pig brain
[3] = Displacement of [3H]DTG from sigma 2 receptor in rat liver homogenates in presence of sigma-1 receptor blocker (+)-pentazocine after 120 mins by liquid scintillation counting; format: tissue-based
[4] = Selectivity ratio of Ki for sigma 1 receptor in guinea pig brain to Ki for sigma 2 receptor in rat liver

Sequence of Sigma non-opioid intracellular receptor 1 (Q60492 whole entry): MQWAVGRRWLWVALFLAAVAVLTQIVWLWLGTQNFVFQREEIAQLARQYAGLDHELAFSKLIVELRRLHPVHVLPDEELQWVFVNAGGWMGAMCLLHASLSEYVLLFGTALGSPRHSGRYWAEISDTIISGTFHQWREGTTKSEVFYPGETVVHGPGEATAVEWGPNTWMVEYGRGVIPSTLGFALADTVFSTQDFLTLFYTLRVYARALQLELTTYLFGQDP

| Structure (SMILES) | Ki [1] | Ki [3] | Ratio Ki [4] | Ratio Ki [2] |
| --- | --- | --- | --- | --- |
| Fc1cccc(CCN2C3CC4CC(C3)CC2C4)c1 | 8.3 nM | 40 nM |  | 4.8 |
| COc1cccc(CN2C3CC4CC(C3)CC2(O)C4)c1 (racemic) | 1950 nM | 353 nM | 5.5 |  |
| Fc1ccc(CCN2C3CC4CC(C3)CC2C4)cc1 | 12.8 nM | 34 nM |  | 2.7 |
| Fc1ccc(CN2C3CC4CC(C3)CC2C4)cc1 | 12 nM | 90 nM |  | 7.5 |

Continued, in another order:

| Ki [1] | Ki [3] | Ratio Ki [4] | Structure (SMILES) | Ratio Ki [2] |
| --- | --- | --- | --- | --- |
| 1240 nM | 426 nM | 2.9 | COc1ccc(CN2C3CC4CC(C3)CC2(O)C4)cc1 (racemic) |  |
| 239 nM | 64 nM | 3.7 | COc1cccc(CN2C3CC4CC(C3)CC2C4)c1 |  |
| 12.4 nM | 54 nM |  | COc1ccc(CN2C3CC4CC(C3)CC2C4)cc1 | 4.4 |
| 650 nM | 826 nM |  | OC12CC3CC(CC(C3)N1Cc1ccc(F)cc1)C2 (racemic) | 1.3 |
| 234 nM | 250 nM |  | OC12CC3CC(CC(C3)N1CCc1cccc(F)c1)C2 (racemic) | 1.1 |
| 246 nM | 201 nM | 1.2 | OC12CC3CC(CC(C3)N1CCc1ccc(F)cc1)C2 (racemic) |  |
